This is an account of results in patent US9533952B2, “N-prop-2-ynyl carboxamide derivatives and their use as TRPA1 antagonists” (Orion Corporation, priority 2012, dated 2017).

This experiment deals with TRPA1 (Homo sapiens, UniProt O75762). The experiment is described as follows: Determination of TRPA1 activity in vitro (TRPA1 antagonism in vitro). The format is cell-based. The note with it: procedure of Wei et al., Anesthesiology 111 (2009) 147-154.
Sequence of TRPA1 (O75762 whole entry): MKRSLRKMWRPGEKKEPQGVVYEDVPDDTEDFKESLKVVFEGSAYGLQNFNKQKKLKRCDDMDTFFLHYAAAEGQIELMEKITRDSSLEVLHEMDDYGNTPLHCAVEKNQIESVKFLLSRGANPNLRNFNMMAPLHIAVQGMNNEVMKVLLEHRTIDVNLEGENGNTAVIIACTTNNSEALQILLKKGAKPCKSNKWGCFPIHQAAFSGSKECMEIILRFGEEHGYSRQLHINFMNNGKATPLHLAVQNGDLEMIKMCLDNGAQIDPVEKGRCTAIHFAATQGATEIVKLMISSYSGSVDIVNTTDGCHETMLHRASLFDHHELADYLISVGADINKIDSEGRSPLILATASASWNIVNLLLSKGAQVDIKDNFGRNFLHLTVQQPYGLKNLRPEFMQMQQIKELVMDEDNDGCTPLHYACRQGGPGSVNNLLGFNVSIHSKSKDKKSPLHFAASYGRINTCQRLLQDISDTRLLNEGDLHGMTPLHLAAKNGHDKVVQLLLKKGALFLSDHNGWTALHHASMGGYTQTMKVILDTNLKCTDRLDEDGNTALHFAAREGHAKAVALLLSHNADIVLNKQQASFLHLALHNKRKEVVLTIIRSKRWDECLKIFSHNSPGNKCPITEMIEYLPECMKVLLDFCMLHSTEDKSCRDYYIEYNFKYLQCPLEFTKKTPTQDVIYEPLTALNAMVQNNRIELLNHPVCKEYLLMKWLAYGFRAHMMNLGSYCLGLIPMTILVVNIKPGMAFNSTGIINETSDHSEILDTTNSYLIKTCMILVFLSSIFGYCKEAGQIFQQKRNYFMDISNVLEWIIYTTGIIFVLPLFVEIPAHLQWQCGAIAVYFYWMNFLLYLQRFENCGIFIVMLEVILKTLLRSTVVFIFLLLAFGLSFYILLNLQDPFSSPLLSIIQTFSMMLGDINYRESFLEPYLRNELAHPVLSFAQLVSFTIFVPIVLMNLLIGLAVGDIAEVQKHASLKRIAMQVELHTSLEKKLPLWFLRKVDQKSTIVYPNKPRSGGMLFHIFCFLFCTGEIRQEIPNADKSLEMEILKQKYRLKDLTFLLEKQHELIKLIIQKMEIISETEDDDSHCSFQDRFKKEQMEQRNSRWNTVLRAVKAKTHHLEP
Take `C#CC(C)(C)NC(=O)c1cnc(C(F)(F)F)nc1NC(C)(C)CC` [Example 109, N-(2-Methylbut-3-yn-2-yl)-4-(tert-pentylamino)-2-(trifluoromethyl)-pyrimidine-5-carboxamide]: the IC50 amounted to 5.1 µM.
Take `C#CC(C)(C)NC(=O)c1ccc(OC)cc1NCCC(F)(F)F` [Example 73, 4-Methoxy-N-(2-methylbut-3-yn-2-yl)-2-(3,3,3-trifluoropropylamino)-benzamide]: the IC50 was 2.2 µM.
`C#CC(C)(CC(C)C)NC(=O)c1cc(F)c(F)cc1NCC(C)C` (stereo not drawn) [Example 68, N-(3,5-Dimethylhex-1-yn-3-yl)-4,5-difluoro-2-(isobutylamino)-benzamide]: half-maximal inhibition (IC50) required 1.1 µM.
For `C#CC(C)(C)NC(=O)c1cc(F)c(N2CCOCC2)nc1NC(C)C` [Example 114, 5-Fluoro-2-(isopropylamino)-N-(2-methylbut-3-yn-2-yl)-6-morpholinonicotinamide], the IC50 came to 4.3 µM.
`C#CC(C)(CC)NC(=O)c1cccnc1Nc1ccc(F)c(C#N)c1` (stereo not drawn) [Example 182, 2-(3-Cyano-4-fluorophenylamino)-N-(3-methylpent-1-yn-3-yl)nicotinamide] came in with an IC50 of 0.5 µM.
Then `C#CC(C)(C)NC(=O)c1ccc(F)cc1NC1CC1` [Example 90, 2-(Cyclopropylamino)-4-fluoro-N-(2-methylbut-3-yn-2-yl)benzamide], with 4.8 µM; and `C#CC(C)(C)NC(=O)c1cc(C(F)(F)F)ccc1NCC(F)F` [Example 10, 2-(2,2-Difluoroethylamino)-N-(2-methylbut-3yn-2-yl)-5-(trifluoromethyl)benzamide], with 1.5 µM; and `C#CC(C)(C)NC(=O)c1cc(F)cc(F)c1NCCC(F)F` [Example 135, 2-(3,3-Difluoropropylamino)-3,5-difluoro-N-(2-methylbut-3-yn-2-yl)benzamide], with 5 µM.
`C#CC(C)(C)NC(=O)c1cc(Cl)cc(F)c1NC(C)C` [Example 95, 5-Chloro-3-fluoro-2-(isopropylamino)-N-(2-methylbut-3-yn-2-yl)-benzamide] returned an IC50 of 5.6 µM.
In the case of `C#CC(C)(C)NC(=O)c1cc(F)ccc1NCCC(F)(F)F` [Example 104, 5-Fluoro-N-(2-methylbut-3-yn-2-yl)-2-(3,3,3-trifluoropropylamino)benzamide], 1.7 µM corresponded to half-maximal inhibition (IC50).
Molecule `C#CC(C)(C)NC(=O)c1cccnc1Nc1ccc(C)c(F)c1` [Example 149, 2-(3-Fluoro-4-methylphenylamino)-N-(2-methylbut-3-yn-2-yl)nicotinamide] had an IC50 of 0.5 µM.
Then `C#CC(C)(CC)NC(=O)c1cccnc1Nc1cc(F)cc(F)c1` (stereo not drawn) [Example 186, 2-(3,5-Difluorophenylamino)-N-(3-methylpent-1-yn-3-yl)nicotinamide], with 0.2 µM.
Molecule `C#CC(C)(C)NC(=O)c1cnc(C(F)(F)F)nc1NCCC(F)(F)F` [Example 11, N-(2-Methylbut-3-yn-2-yl)-2-(trifluoromethyl)-4-(3,3,3-trifluoropropylamino)pyrimidine-5-carboxamide] registered an IC50 of 3.7 µM.
On to `C#CC(C)(C)NC(=O)c1ccc(C(F)(F)F)nc1NC(C)(C)C` [Example 111, 2-(tert-Butylamino)-N-(2-methylbut-3-yn-2-yl)-6-(trifluoromethyl)-nicotinamide], for which 2.4 µM corresponded to half-maximal inhibition (IC50).
Then `C#CC(C)(C)NC(=O)c1cccnc1Nc1cccc(F)c1` [Example 121, 2-(3-Fluorophenylamino)-N-(2-methylbut-3-yn-2-yl)nicotinamide], with 1.1 µM; and `C#CC(C)(C)NC(=O)c1cc2c(cc1NCC(C)C)OCCCO2` [Example 8, 8-(Isobutylamino)-N-(2-methylbut-3 yn-2-yl)-3,4-dihydro-2H-benzo[b][1,4]dioxepine-7-carboxamide], with 13 µM; and `C#CC(C)(C)NC(=O)c1cccnc1Nc1cc(OC)ccc1Cl` [Example 188, 2-(2-Chloro-5-methoxyphenylamino)-N-(2-methylbut-3-yn-2-yl)nicotinamide], with 16.7 µM.
Then `C#CC(C)(C)NC(=O)c1cscc1NCCC` [Example 126, N-(2-Methylbut-3-yn-2-yl)-4-(propylamino)thiophene-3-carboxamide], with 8 µM; and “5-Chloro-N-(2-methylbut-3-yn-yl)-2-(2,2,2-trifluoroethylamino)-nicotinamide [Example 34]”, with 0.5 µM; and `C#CC(C)(CCC)NC(=O)c1cc(F)c(F)cc1NCC(C)C` (stereo not drawn) [Example 70, 4,5-Difluoro-2-(isobutylamino)-N-(3-methylhex-1-yn-3-yl)benzamide], with 0.7 µM.
`C#CC(C)(CC)NC(=O)c1cc(F)ccc1NCCCC` (stereo not drawn) [Example 102, 2-(Butylamino)-5-fluoro-N-(3-methylpent-1-yn-3-yl)benzamide] had a half-inhibitory concentration (IC50) of 0.3 µM.
As for `C#CC(CC)(CC)NC(=O)c1cc(F)ccc1NCC` [Example 103, 2-(Ethylamino)-N-(3-ethylpent-1-yn-3-yl)-5-fluorobenzamide], the IC50 is 1.8 µM.
In turn, `C#CC(C)(C)NC(=O)c1cc(C(F)(F)F)ccc1NCC(F)(F)C(F)(F)F` [Example 18, N-(2-Methylbut-3-yn-2-yl)-2-(2,2,3,3,3-pentafluoropropylamino)-5-(trifluoromethyl)benzamide] had an IC50 of 0.3 µM.
Then `C#CC(C)(C)NC(=O)c1cccnc1Nc1ccc(F)cc1` [Example 131, 2-(4-Fluorophenylamino)-N-(2-methylbut-3-yn-2-yl)nicotinamide], with 1.4 µM; and `C#CC(C)(C)NC(=O)c1cc(Cl)cnc1NCCCOCC` [Example 146, 5-Chloro-2-(3-ethoxypropylamino)-N-(2-methylbut-3-yn-2-yl)nicotinamide], with 5.9 µM; and `C#CC(C)(C)NC(=O)c1cc(C(F)(F)F)cnc1NCCC(F)(F)F` [Example 2, N-(2-Methylbut-3-yn-2-yl)-5-(trifluoromethyl)-2-(3,3,3-trifluoropropylamino) nicotinamide], with 0.3 µM.
Then `C#CC(C)(C)NC(=O)c1cc(OC(F)(F)F)ccc1NCCC(F)(F)F` [Example 75, N-(2-Methylbut-3-yn-2-yl)-5-(trifluoromethoxy)-2-(3,3,3-trifluoropropylamino)benzamide], with 0.7 µM; and `C#CC(C)(C)NC(=O)c1cccc(F)c1NCCC(F)(F)F` [Example 15, 3-Fluoro-N-(2-methylbut-3-yn-2-yl)-2-(3,3,3-trifluoropropylamino)-benzamide], with 3 µM.
Regarding `C#CC(C)(C)NC(=O)c1cc(OC)c(OC)cc1NCC(C)C` [Example 88, 2-(Isobutylamino)-4,5-dimethoxy-N-(2-methylbut-3-yn-2-yl)benzamide], the IC50 was 14.2 µM.
Then `C#CC(CC)(CC)NC(=O)c1cccc2cc[nH]c12` [Example 119, N-(3-Ethylpent-1-yn-3-yl)-1H-indole-7-carboxamide], with 18.7 µM; and `C#CC(C)(C)NC(=O)c1cccnc1NCCCC` [Example 100, 2-(Butylamino)-N-(2-methylbut-3-yn-2-yl)nicotinamide], with 6.6 µM.
In the case of `C#CC(C)(C)NC(=O)c1cc(F)ccc1NCC(F)(F)C(F)(F)F` [Example 31, 5-Fluoro-N-(2-methylbut-3-yn-2-yl)-2-(2,2,3,3,3-pentafluoropropylamino) benzamide], the IC50 is 2.6 µM.
As for `C#CC(C)(C)NC(=O)c1cncnc1NCC(F)(F)C(F)(F)F` [Example 132, N-(2-Methylbut-3-yn-2-yl)-4-(2,2,3,3,3-pentafluoropropylamino)-pyrimidine-5-carboxamide], the IC50 is 13.8 µM.
As for `C#CC(C)(C)NC(=O)c1cc(Cl)cnc1NC(C)C` [Example 26, 5-Chloro-2-(isopropylamino)-N-(2-methylbut-3-yn-2-yl)-nicotinamide], it took 3.3 µM to reach half-maximal inhibition (IC50).
For `C#CC(C)(C)NC(=O)c1cc(F)c(F)cc1NCC(F)(F)F` [Example 38, 4,5-Difluoro-N-(2-methylbut-3-yn-2-yl)-2-(2,2,2-trifluoroethylamino)-benzamide], the IC50 came out at 2.5 µM.
`C#CC(C)(C)NC(=O)c1cc(F)c(F)cc1NC(C)(C)C` [Example 82, 2-(tert-Butylamino)-4,5-difluoro-N-(2-methylbut-3-yn-2-yl)benzamide] displayed an IC50 of 5.4 µM.
`C#CC(C)(C)NC(=O)c1cc(F)cnc1Nc1ccc(C2CCCC2)nc1` [Example 140, 2-(6-Cyclopentylpyridin-3-ylamino)-5-fluoro-N-(2-methylbut-3-yn-2-yl)nicotinamide]: the IC50 was determined as 5.5 µM.
Turning to `C#CC(C)(C)NC(=O)c1cc(C)ccc1NCCC(F)(F)F` [Example 77, 5-Methyl-N-(2-methylbut-3-yn-2-yl)-2-(3,3,3-trifluoropropylamino)-benzamide], half-maximal inhibition (IC50) required 0.9 µM.
Consider `C#CC(C)(C)NC(=O)c1cc(C(F)(F)F)cnc1NCC(F)(F)F` [Example 35, N-(2-Methylbut-3-yn-2-yl)-2-(2,2,2-trifluoroethylamino)-5-(trifluoromethyl)nicotinamide], for which the IC50 stood at 0.5 µM.
On to `C#CC(C)(C)NC(=O)c1ccc(F)cc1NCCC(F)(F)F` [Example 71, 4-Fluoro-N-(2-methylbut-3-yn-2-yl)-2-(3,3,3-trifluoropropylamino) benzamide], for which the midpoint of inhibition, the IC50, lay at 0.7 µM.
Regarding `C#CC(C)(C)NC(=O)c1cc(F)ccc1NC(C)C` [Example 92, 5-Fluoro-2-(isopropylamino)-N-(2-methylbut-3-yn-2-yl)benzamide], half-maximal inhibition (IC50) was put at 12.3 µM.
Molecule `C#CC(C)(C)NC(=O)c1cc(F)c(F)cc1NCC(C)(C)C` [Example 61, 4,5-Difluoro-N-(2-methylbut-3-yn-2-yl)-2-(neopentylamino) benzamide] showed an IC50 of 0.8 µM.
The molecule `C#CC(C)(C)NC(=O)c1cc(F)c(F)cc1NCCC` [Example 63, 4,5-Difluoro-N-(2-methylbut-3-yn-2-yl)-2-(propylamino)benzamide] returned an IC50 of 3.1 µM.
With `C#CC(C)(C)NC(=O)c1ccc(OC)cc1NCCC` [Example 74, 4-Methoxy-N-(2-methylbut-3-yn-2-yl)-2-(propylamino)benzamide], the IC50 worked out at 7 µM.
The molecule `C#CC(C)(C)NC(=O)c1ccc(C(F)(F)F)nc1NC1CC1` [Example 117, 2-(Cyclopropylamino)-N-(2-methylbut-3-yn-2-yl)-6-(trifluoromethyl)-nicotinamide] yielded an IC50 of 2.3 µM.

One may read the IC50 as the concentration needed to halve the response being measured.
